Columns and labels:
L1210 = test: In vivo antitumor therapy against L1210; design: species or system BDF1 mice; details: days 1-9; for % T/C: optimal dose 12.5 mg/kg i.p.
[1] = tested on: wild-type L1210 leukemic cells; test: In vitro cytotoxicity, growth inhibition of wild-type L1210 leukemic cells; assay type: cell-based, murine; details: 72 hours incubation
Description: Wild-type L1210 leukemic cells were grown as a suspension culture in McCoy's 5A medium supplemented with 10% horse serum, glutamine, streptomycin and penicillin at 37° C., 95% relative humidity and 5% CO2. Four ml of cell suspension (10^5 cells/ml) were added to culture tubes and the appropriate amount of drug was added (to yield 0.01, 0.1, 1 or 10 μg/ml final concentration) to the culture tubes. After 72 hours of incubation, the cell concentration in control and experimental cultures were determined with the aid of the Coulter counter model ZBf and the percent of growth inhibition calculated.

L1210/cisplatin = test: In vivo antitumor efficacy, L1210/cisplatin; design: species or system BDF1 mice; details: for % T/C (mean survival time treated/control × 100): mice inoculated with L1210 cells (Table 6); for % T/C: days 1, 5, 9
Description: (§1) BDF1 mice were inoculated intraperitoneally with 10^5 L121O cells, 0.5 ml of 10% tumor brei or 10^6 M5076 cells using 5 animals in each group. Drug was administered […] on days 1, 5 and 9, except that the group infected with M5076 cells was also injected on day 13. % T/C represents mean survival time treated/mean survival time of the control times 100.
^a BDF1 mice were inoculated i.p. with 10^5 L1210 cells. Mic
received 3 i.p. drug injections days 1, 5, and 9.
(§2) ^d % T/C = (Mean Survival Time treated/Mean Survival Time control)
(§3) ^e LTS animals alive 60 days after inoculation of L1210/0 and B16 and […]

B16 melanoma = test: In vivo antitumor efficacy, B16 melanoma; design: species or system BDF1 mice; details: for % T/C (mean survival time treated/control x 100): mice inoculated with B16 cells (Table 6); for % T/C: days 1, 5, 9
Description: as §1, §2, §3

[2] = In vivo renal and hematological toxicity of DACH-Pt(II) compounds; design: species or system CD1 albino mice; WBC d.5: unit not given here; details: single i.p. LD50 dose; for Body Weight d.5 (% of day 0) / WBC d.5: day 5; for WBC d.5: mean ± S.D.
Description: CD1 albino mice were administered a single intraperitoneal injection of the LD50 dose of each compound using 5 mice in each group. Five days later each mouse was bled under anesthesia from the axillary vessel. Blood urea nitrogen (BUN) and leucopenia were assessed for each sample.
^a CD1 Albino mice were administered a single i.p. injection of
the LD50 dose of each compound (5 mice/cmpd) and bled under
anesthesia from the axillary vessel 5 days later for blood urea nitrogen
(BUN) measurement and assessment of leucopenia. Results as presented as […]

M5076 = test: In vivo antitumor efficacy, M5076; design: species or system BDF1 mice; details: for % T/C (treated/control mean survival time): mice inoculated with M5076 cells (Table 6); for % T/C: days 1, 5, 9, 13; for LTS: alive 90 days after inoculation
Description: as §1
^c BDF1 mice were inoculated i.p. with 10^6 M5076 cells. Mic
received 4 i.p. drug injections on days 1, 5, 9 and 13.
as §2
^e LTS animals alive 60 days after inoculation of L1210/0 and B16 and
90 days after inoculation B5076.

[3] = LD50 of DACH-Pt(II) compounds, intraperitoneal; assay type: in vivo; details: i.p., CD1 albino mice

1,1-Cyclobutanedicarboxylato(cis-DACH)Pt(II).11/2H2 O [Compound 13]
Long-term Survivors (L1210; 12.5 mg/kg i.p., alive 30 days after tumor inoculation): 1/6 | % T/C (L1210): 253% | ID50 [1]: 3.30 µg/mL | % T/C (mean survival time treated/control × 100) (L1210/cisplatin): 150% | % T/C (L1210/cisplatin; opt. dose 150 mg/kg i.p.): 150% | long term survivor (B16 melanoma; B16 inoculation (Table 6)): 1/5 | % T/C (mean survival time treated/control x 100) (B16 melanoma): 200% | % T/C (B16 melanoma; opt. dose 100 mg/kg i.p.): 200% | LTS (B16 melanoma; opt. dose 100 mg/kg i.p., alive 60 days after inoculation): 1/5 | Survivors on d.5 [2]: 5/5 | Body Weight d.5 (% of day 0) [2]: 82 % of day 0 | WBC d.5 [2]: 1.13 ± 0.28 | long term survivor (M5076; M5076 inoculation (Table 6)): 5/5 | % T/C (treated/control mean survival time) (M5076): 400% | % T/C (M5076; opt. dose 100 mg/kg i.p.): 400% | LTS (M5076; opt. dose 100 mg/kg i.p.): 5/5 | LD50 [3]: 215 mg/kg

N[C@H]1CCCC[C@@H]1N.O.O.O=C([O-])C1(C(=O)[O-])CCC1.[Pt+2] (stereo in doubt) [Compound 12, 1,1-Cyclobutanedicarboxylato(trans-S,S-DACH)Pt(II).2H2 O]
% T/C (L1210): 120% | ID50 [1]: 1.65 µg/mL | % T/C (mean survival time treated/control × 100) (L1210/cisplatin): 176% | % T/C (L1210/cisplatin; opt. dose 100 mg/kg i.p.): 176% | % T/C (mean survival time treated/control x 100) (B16 melanoma): 104% | % T/C (B16 melanoma; opt. dose 50 mg/kg i.p.): 104% | Survivors on d.5 [2]: 3/5 | Body Weight d.5 (% of day 0) [2]: 114 % of day 0 | WBC d.5 [2]: 3.42 ± 1.93 | % T/C (treated/control mean survival time) (M5076): 231% | % T/C (M5076; opt. dose 50 mg/kg i.p.): 231% | LTS (M5076; opt. dose 50 mg/kg i.p.): 1/5 | LD50 [3]: 230 mg/kg
